Results reported in patent publication US12344852B2, “Control of phenotype in plants” (GREENVENUS, LLC, priority 2016, dated 2025).

Key:
[1] = system: FT gene under EcR-based gene switch; assay: FT expression by qRT-PCR over the time-course of induction in ID14-50 plants; assay type: in vivo, Arabidopsis; settings: homozygous ID14-50 T3 plants, all concentrations (10, 50, 250 nM), long and short day photoperiod
Description: FT expression was characterized at five time-points over the time-course of induction. One leaf per plant was collected at time-zero before ligand application corresponding to 17 and 24 days old plants in long and short day photoperiod, at one day after treatment started corresponding to 18 and 25 days old plants, four days after treatment started corresponding to 21 and 28 days old plants, seven days after ligand application started corresponding to 24 and 31 days old plants and, eleven days after treatment started corresponding to 28 and 35 days old plants for RNA extraction using a Qiagen RNA easy kit. First-strand cDNA was synthesized from the total RNA to be used as template for qRT-PCR analysis. qRT-PCR was set-up as previously described for T2 characterization. […] For most homozygous plants FT expression stayed relatively high and to a similar level from day one to day seven post-treatment before going down a little by day eleven post-treatment. For all time points, tissue was collected at the end of a period of induction, right before treatment was re-applied. […] FT expression in mock-treated plants as well as null and mutant treated plants stayed very low for the most part over the eleven days of treatment. In all genotypes, there is a large variation in FT expression among individual plants in the groups of siblings.

[2] = system: GUS reporter gene; assay: Ligand inducible GUS silencing (Agro-infiltration, X-gluc staining) in DCL1/DCL2/GUS hairpin petunia lines; assay type: cell-based
Description: Assay for Agro-infiltration. Transient β-glucoronidase (GUS) expression, was modified from previously reported literature (Wroblewski et al. (2005) Plant Biotechnol. J. 3(2):259-273). Specifically, Agrobacterium tumefaciens strain EHA105 containing an appropriate plasmid for GUS expression was grown overnight to an OD600 of 0.8 and re-suspended in induction buffer with the following components: MS basal medium (Sigma-Aldrich), 10 mM MgCl2, and 100 uM acetosyringone. After 4 hours, induced culture suspension was infiltrated into detached fully expanded petunia leaves (approximately 0.1 mL/leaf). Leaves were incubated in a humidity chamber at 28° C. for 3 days.
Histochemical X-gluc staining for GUS visualization. […]
Ligand inducible hairpin expression for dsRNA synthesis targeting two Botrytis cinerea genes and the GUS reporter gene. Ligand inducible expression of the DCL1/DCL2/GUS hairpin cassette was evaluated using the transient Agrobacterium-mediated GUS expression as described above only detached leaves were sprayed with 50 uM ligand or mock treated with water prior to Agro-infiltration. […]
Eight independent Switch-DCL1/DCL2/GUS petunia lines were evaluated by detaching 6 leaves from each line and splitting into two treatments. […]

COc1cccc(C(=O)NN(C(=O)c2cc(C)cc(C)c2)C(C)(C)C)c1C [methoxyfenozide, 3-methoxy-2-methylbenzoic acid 2-(3,5-dimethylbenzoyl)-2-(1,1-dimethylethyl)hydrazide]
FT expression [1]: increases as early as one day post-treatment | GUS expression in constitutive controls DCL-25 and DCL-6 ([2]; 50 uM ligand vs water): did not show any ligand induced changes to GUS expression | GUS expression in Switch DCL-8 line ([2]; 50 uM sprayed on detached leaves twice, Agro-infiltration at 3 days, X-gluc staining 3 days later, listed as ligand): ligand induced GUS silencing
